# Assay results: US20050043361A1, “MitoNEET polypeptide from mitochondrial membranes, modulators thereof, and methods of using the same” (priority 2002, published 2005)
# Entries after “also recorded” stand apart in the source; their conditions may differ.
# B1: synthetic mitoNEET: Full-length mitoNEET polypeptide made by peptide synthesis (peptide, UniProt Q9NZ45 1-108, looked up)
# chain: MSLTSSSSVRVEWIAAVTIAAGTAAIGYLAYKRFYVKDHRNKAMINLHIQKDNPKIVHAFDMEDLGDKAVYCRCWRSKKFPFCDGAHTKHNEETGDNVGPLIIKKKET
# modifications: full-length chemically synthesized
# notes: Full-length mitoNEET polypeptide made by peptide synthesis
# Key:
# mitoNEET [1] = biological target: T1, mitoNEET (Rattus norvegicus, UniProt B0K020); assay: Photoaffinity crosslinking of 125I-labelled thiazolidinedione probe to rat liver mitochondria, with or without competing thiazolidinedione; format: binding
# T1 construct: newly prepared crude rat liver mitochondria; from tissue; host or cells: rat liver mitochondria (Sprague-Dawley rats)
# T1 sequence (B0K020 1-108): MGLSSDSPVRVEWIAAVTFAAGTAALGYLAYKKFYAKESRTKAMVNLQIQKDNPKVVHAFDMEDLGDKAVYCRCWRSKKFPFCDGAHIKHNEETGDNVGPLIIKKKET
# Procedure: FIG. 1. A representative 10-20% SDS-PAGE gel (Coomassie stain, left panel) and autoradiogram (right panel). Crosslinking with ^125I-PNU-1010174 was conducted in rat liver mitochondria in the absence (−) or presence of 25 μM (+) of ([6-(2-{4-[(2,4-dioxo-1,3-thiazolidin-5-yl)methyl]phenoxy}ethyl)pyridin-3-yl]acetic acid) (TZD) as described in Example 1. Lanes 1 and 2 are from the rinsed mitochondrial pellet, lanes 3 and 4 represent the same incubations solubilized with 1% Triton X 114, and lanes 5 and 6 are the ammonium sulfate (AS) precipitation of the Triton X 114 soluble material.
# FIG. 2. The ammonium sulfate pellets of Triton X 114—soluble mitoNEET from 14 separate incubations conducted with or without competitor were resuspended in a total volume of 200 μl and subjected to HPLC as described in Example 4. Representative data for the minus competitor condition is shown. […] The ^125I, profile from the in-line gamma detector is shown in the lower right panel. The left hand panels show the silver-stained gel (upper left) and corresponding autoradiogram (lower left) of the relevant fractions. Data are shown for a representative rat liver mitochondrial preparation. The ^125I-crosslinked mitoNEET seen in fraction 31 was not present in the preparations crosslinked in the combined presence of ([6-(2-{4-[(2,4-dioxo-1,3-thiazolidin-5-yl)methyl]phenoxy}ethyl)pyridin-3-yl]acetic acid) (not shown). […]
# mitoNEET [2] = biological target: T2, mitoNEET (Bos taurus, UniProt Q3ZBU2); assay: Photoaffinity crosslinking of 125I-labelled thiazolidinedione probe to bovine brain mitochondrial fractions (B3/B4); format: binding; settings: stored, frozen bovine brain mitochondrial fractions (B3/B4); UV crosslinking
# T2 construct: from tissue; host or cells: steer brain, sucrose-density mitochondrial fractions B3/B4
# T2 sequence (Q3ZBU2 2-106 limits assumed): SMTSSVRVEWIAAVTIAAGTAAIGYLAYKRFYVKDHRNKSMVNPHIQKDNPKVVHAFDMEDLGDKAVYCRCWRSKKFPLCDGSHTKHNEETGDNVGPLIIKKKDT
# Procedure: Bovine brain mitochondria were harvested from bovine brains. This procedure involved dissection of steer brains freshly obtained from a local packinghouse. The rinsed brains were homogenized in fractionation buffer (250 mM sucrose, 50 mM Tris, pH=8.0, containing 1 μg/ml pepstatin A, 5 μg/ml leupeptin, 10 μg/ml bacitracin, and 0.1 mM PMSF). Following removal of nuclei at 5000 rpm in a Beckman Ti50, the mitochondrial pellet was harvested at 20,000×g (12,500 rpm in a Beckman Ti50 rotor) and further enriched by sucrose density centrifugation. Membrane fractions were collected from top of the 1.18 and 1.20 density bands, re-suspended in 50 mM Tris, and collected by centrifugation. The factions (“B3/B4”) were stored at −80° C. until use.
# Crosslinking reactions were carried out in a final volume of 200 μl, containing 100 μl membranes, 50 μl 4% DMSO with or without competing thiazolidinedione (usually 100 μM ([6-(2-{4-[(2,4-dioxo-1,3-thiazolidin-5-yl)methyl]phenoxy}ethyl)pyridin-3-yl]acetic acid), 25 μM final concentration), and 50 μl carrier-free ^125I-4-azido-N-[2-({[6-(2-{4-[(2,4-dioxo-1,3-thiazolidin-5-yl)methyl]phenoxy}ethyl)pyridin-3-yl]acetyl}amino)ethyl]-2-hydroxybenzamide (0.1-0.2 μCi/tube). […]
# fatty acid oxidation = assay: Oxidation of palmitoyl CoA by solubilized mitochondria with and without synthetic mitoNEET (HPLC); format: biochemical; settings: excess synthetic mitoNEET; solubilized mitochondrial preparations; CoASH, NAD, FAD, 1 mM palmitoyl CoA
# Procedure: FIG. 10. Oxidation of palmitoyl CoA was measured by solubilized mitochondria with and without the addition of synthetic mitoNEET. Reactions were conducted in the presence of CoASH, NAD, FAD, and 1 mM palmitoyl CoA. Remaining palmitoyl CoA at various time points after incubation is shown in the absence (closed circles) and presence of excess synthetic mitoNEET peptide 11A (closed squares). There was no loss of substrate in the absence of mitochondrial membranes (open triangles). Substrate and generated CoA products were measured by HPLC.
# Full-length mitoNEET synthesized as in Example 6 was extended to contain a N-terminal biotin. […] A number of these proteins have been identified and are know to be involved in fatty acid oxidation. […] Modulation of mitoNEET function would be expected to increase fatty acid oxidation. Such an approach to find useful modulators as described herein may be taken with synthetic peptide or membranes containing endogenous or overexpressed mitoNEET.
molecule,measurement,setting,value
[N-]=[N+]=Nc1cc(O)c(C(=O)NCCNC(=O)Cc2ccc(CCOc3ccc(CC4SC(=O)NC4=O)cc3)nc2)cc1[125I] (stereo not shown),labeling of mitoNEET by crosslinking,"mitoNEET [1]; newly prepared crude rat liver mitochondria, UV crosslinking, carrier-free probe 0.1-0.2 μCi/tube",labeling of the mitoNEET
same,labeling of mitoNEET by crosslinking,mitoNEET [2],labeling of the mitoNEET
"O=C(O)Cc1ccc(CCOc2ccc(CC3SC(=O)NC3=O)cc2)nc1 (stereo not shown) [[6-(2-{4-[(2,4-dioxo-1,3-thiazolidin-5-yl)methyl]phenoxy}ethyl)pyridin-3-yl]acetic acid]",125I-crosslinked mitoNEET peak (HPLC) in presence of competitor,"mitoNEET [1]; competitor 25 μM final concentration, HPLC with in-line gamma detector, fraction 31, identical results with bovine brain fractions",lacked this peak; also recorded: not present
B1,effect on fatty acid oxidation (remaining palmitoyl CoA),fatty acid oxidation,inhibits fatty acid oxidation
